Experiment [1] has as its target T1, Prostaglandin G/H synthase 1 (Ovis aries, UniProt P05979).
T1 sequence (P05979 whole entry): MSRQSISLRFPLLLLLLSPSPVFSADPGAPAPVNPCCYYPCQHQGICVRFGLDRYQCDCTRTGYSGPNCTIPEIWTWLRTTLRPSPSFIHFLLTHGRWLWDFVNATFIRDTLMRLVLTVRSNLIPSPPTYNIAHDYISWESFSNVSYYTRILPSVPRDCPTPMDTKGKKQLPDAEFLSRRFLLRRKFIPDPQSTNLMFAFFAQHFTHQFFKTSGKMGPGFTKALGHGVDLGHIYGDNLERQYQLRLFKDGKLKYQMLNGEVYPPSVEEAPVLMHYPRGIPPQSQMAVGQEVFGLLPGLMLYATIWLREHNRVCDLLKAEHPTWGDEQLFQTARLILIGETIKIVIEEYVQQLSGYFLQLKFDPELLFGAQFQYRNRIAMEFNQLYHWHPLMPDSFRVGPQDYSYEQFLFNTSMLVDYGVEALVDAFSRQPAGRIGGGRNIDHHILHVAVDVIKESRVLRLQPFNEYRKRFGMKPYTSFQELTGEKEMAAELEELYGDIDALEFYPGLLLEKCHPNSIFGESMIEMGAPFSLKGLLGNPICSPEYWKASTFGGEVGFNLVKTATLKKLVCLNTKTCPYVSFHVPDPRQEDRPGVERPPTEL
Nature of the experiment: Inhibition of ovine COX-1 assessed as inhibition of [14C]arachidonic acid to radiolabeled prostaglandins preincubated for 20 mins by TLC-based assay.

Experiment [2] has as its target T2, Prostaglandin G/H synthase 2 (Mus musculus, UniProt Q05769).
T2 sequence (Q05769 whole entry): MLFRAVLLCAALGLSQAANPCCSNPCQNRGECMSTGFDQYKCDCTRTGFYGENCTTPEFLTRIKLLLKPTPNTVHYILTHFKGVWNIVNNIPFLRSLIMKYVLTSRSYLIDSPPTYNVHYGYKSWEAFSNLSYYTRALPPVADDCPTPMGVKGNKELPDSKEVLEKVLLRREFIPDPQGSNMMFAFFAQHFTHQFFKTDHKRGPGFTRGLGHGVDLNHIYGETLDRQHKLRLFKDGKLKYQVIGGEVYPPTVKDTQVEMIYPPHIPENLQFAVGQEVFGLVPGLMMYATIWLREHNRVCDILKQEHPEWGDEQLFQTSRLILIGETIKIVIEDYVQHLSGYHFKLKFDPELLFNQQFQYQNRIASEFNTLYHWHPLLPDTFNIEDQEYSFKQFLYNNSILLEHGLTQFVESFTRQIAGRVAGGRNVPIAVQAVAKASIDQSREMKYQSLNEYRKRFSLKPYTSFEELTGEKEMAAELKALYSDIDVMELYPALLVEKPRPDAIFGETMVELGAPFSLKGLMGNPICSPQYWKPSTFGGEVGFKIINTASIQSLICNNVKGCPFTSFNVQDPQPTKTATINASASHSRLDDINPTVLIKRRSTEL
Nature of the experiment: Inhibition of mouse COX-2 assessed as inhibition of [14C]arachidonic acid to radiolabeled prostaglandins preincubated for 20 mins by TLC-based assay.

The target in experiment [3] is T3, Prostaglandin G/H synthase 2 (Homo sapiens, UniProt P35354).
T3 sequence (P35354 whole entry): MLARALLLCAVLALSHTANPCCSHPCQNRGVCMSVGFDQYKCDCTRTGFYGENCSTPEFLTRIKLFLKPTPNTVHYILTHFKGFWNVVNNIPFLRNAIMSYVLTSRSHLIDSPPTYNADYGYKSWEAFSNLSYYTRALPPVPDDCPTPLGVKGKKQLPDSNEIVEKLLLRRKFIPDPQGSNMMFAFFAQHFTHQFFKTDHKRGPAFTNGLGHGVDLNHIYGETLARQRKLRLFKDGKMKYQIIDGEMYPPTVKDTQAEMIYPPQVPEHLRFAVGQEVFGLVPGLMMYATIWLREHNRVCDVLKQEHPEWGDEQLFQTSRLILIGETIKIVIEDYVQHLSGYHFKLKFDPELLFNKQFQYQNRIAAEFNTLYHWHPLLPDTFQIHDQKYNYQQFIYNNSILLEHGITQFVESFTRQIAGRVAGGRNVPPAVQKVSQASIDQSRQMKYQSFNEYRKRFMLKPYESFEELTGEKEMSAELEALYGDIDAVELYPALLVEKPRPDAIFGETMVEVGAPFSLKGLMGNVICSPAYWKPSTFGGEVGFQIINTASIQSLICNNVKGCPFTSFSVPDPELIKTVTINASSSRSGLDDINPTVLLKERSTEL
Briefly: Inhibition of COX-2 in human 1483 cells by cell-based assay.

The target of experiment [4] is Prostaglandin G/H synthase 1 (Homo sapiens, UniProt P23219). Nature of the experiment: Inhibition of COX-1 in human OVCAR3 cells by cell-based assay. Also on record: species or system OVCAR-3.
Experiment [5] addresses T4, Prostaglandin G/H synthase 2 (Mus musculus) (UniProt Q05769).
T4 sequence (whole entry): T2 sequence (Q05769 whole entry)
Nature of the experiment: Inhibition of mouse COX-2 assessed as inhibition of [14C]arachidonic acid to radiolabeled prostaglandins measured as residual activity preincubated for 20 mins by TLC-based assay.

Some results are limits rather than exact numbers.

Prostaglandin G/H synthase 1 (Homo sapiens, UniProt P23219), sequence (P23219 whole entry): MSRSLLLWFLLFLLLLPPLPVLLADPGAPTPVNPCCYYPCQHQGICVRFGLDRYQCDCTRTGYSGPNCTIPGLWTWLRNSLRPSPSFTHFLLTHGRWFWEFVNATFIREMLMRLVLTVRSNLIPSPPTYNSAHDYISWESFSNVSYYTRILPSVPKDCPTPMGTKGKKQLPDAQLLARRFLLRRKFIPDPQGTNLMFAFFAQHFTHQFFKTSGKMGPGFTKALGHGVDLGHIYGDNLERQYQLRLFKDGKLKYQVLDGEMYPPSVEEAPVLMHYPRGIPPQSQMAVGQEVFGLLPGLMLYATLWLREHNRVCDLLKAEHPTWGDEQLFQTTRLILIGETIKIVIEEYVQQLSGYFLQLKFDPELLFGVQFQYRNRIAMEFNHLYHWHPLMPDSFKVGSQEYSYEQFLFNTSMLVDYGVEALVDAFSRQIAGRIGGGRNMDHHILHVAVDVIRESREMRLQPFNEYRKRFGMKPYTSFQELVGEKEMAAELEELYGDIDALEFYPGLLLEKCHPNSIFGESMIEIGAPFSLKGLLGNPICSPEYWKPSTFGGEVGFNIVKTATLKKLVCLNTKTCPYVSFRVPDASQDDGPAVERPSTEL

Take `Cc1ccc(C2=C(c3ccnc(Cl)c3)C(=O)OC2)cc1`: the IC50 (usually the concentration that inhibits the measured activity by half) in experiment [1] was 5 µM; in experiment [2], greater than 25 µM.
As to `O=C1OCC(c2ccc(F)cc2)=C1c1ccc(Cl)cc1`, the IC50 in experiment [1] and in experiment [2] was greater than 25 µM throughout.
Take `O=C1OCC(c2ccccc2)=C1c1ccccc1F`: the IC50 in experiment [1] and in experiment [2] was greater than 25 µM throughout.
For the compound `Cc1ccc(C2=C(c3ccnc(F)c3)C(=O)OC2)cc1`, the IC50 in experiment [1] and in experiment [2] was greater than 25 µM throughout.
As for `COc1ccc(C2=C(c3ccccc3)C(=O)OC2)cc1`, the concentration for half-maximal inhibition (IC50) in experiment [1] and in experiment [2] was greater than 25 µM each time.
In the case of `COc1ccc(C2=C(c3ccc(C(F)(F)F)cc3)C(=O)OC2)cc1`, the IC50 in experiment [1] is 1 µM; in experiment [2], greater than 25 µM.
`O=C1OCC(c2ccc(C(F)(F)F)cc2)=C1c1cccc(F)c1`: the concentration for half-maximal inhibition (IC50) in experiment [1] and in experiment [2] was greater than 25 µM throughout.
On to `Cc1ccc(C2=C(c3ccccc3F)COC2=O)cc1`, for which the IC50 in experiment [1] and in experiment [2] was greater than 25 µM in each case.
With `O=C1OCC(c2ccc(F)cc2)=C1c1ccc(CO)cc1`, the IC50 in experiment [1] and in experiment [2] was greater than 25 µM each time.
For the compound `Cc1ccc(C2=C(c3ccc(Oc4ccc(F)cc4)cc3)C(=O)OC2)cc1`, the IC50 in experiment [1] and in experiment [2] was greater than 25 µM each time.
With `CSc1ccc(C2=C(c3ccc(F)cc3)C(=O)OC2)cc1`, the IC50 in experiment [1] and in experiment [2] was greater than 25 µM in each case.
Turning to `COc1ccc(C2=C(c3ccc(F)cc3)C(=O)OC2)cc1`, the IC50 in experiment [3] is greater than 5 µM; in experiment [1], 0.48 µM; in experiment [4], 0.36 µM; in experiment [2] it was greater than 25 µM. Moreover, the Activity in experiment [5] was greater than 50%.
With `O=C1OCC(c2cccc(F)c2)=C1c1ccccc1`, the IC50 in experiment [1] and in experiment [2] was greater than 25 µM each time.
Regarding `O=C1OCC(c2ccccc2)=C1c1cccc(F)c1`, the IC50 in experiment [1] and in experiment [2] was greater than 25 µM throughout.
On to `O=C1OCC(c2ccccc2F)=C1c1ccccc1`, for which the IC50 in experiment [1] and in experiment [2] was greater than 25 µM throughout.
With `COc1ccc(C2=C(c3ccc(Br)cc3)C(=O)OC2)cc1`, the IC50 came to 0.12 µM in experiment [1] and 0.45 µM in experiment [2].
Consider `COc1ccc(C2=C(c3ccc(I)cc3)C(=O)OC2)cc1`, for which the IC50 in experiment [3] is greater than 5 µM; in experiment [1], 0.09 µM; in experiment [4], greater than 4 µM; in experiment [2], greater than 25 µM. Moreover, the Activity in experiment [5] is greater than 50%.
For `O=C1OCC(c2ccccc2F)=C1c1ccc(Cl)cc1`, the IC50 in experiment [1] and in experiment [2] was greater than 25 µM in each case.
Regarding `Cc1ccc(C2=C(c3ccc(F)cc3)C(=O)OC2)cc1`, the IC50 in experiment [3] was greater than 5 µM; in experiment [1], 0.95 µM; in experiment [4] it was 0.78 µM; in experiment [2], greater than 25 µM.
For `O=C1OCC(c2ccccc2)=C1c1ccc(F)cc1` the same measures were greater than 5 µM, 6 µM, 2.8 µM and greater than 25 µM.
Regarding `COc1ccc(C2=C(c3cccc(C(F)(F)F)c3)C(=O)OC2)cc1`, the 50% inhibitory concentration (IC50) in experiment [1] is 8.8 µM; in experiment [2], greater than 25 µM.
For `COc1ccc(C2=C(c3ccc(Oc4ccc(F)cc4)cc3)C(=O)OC2)cc1`, in that order: greater than 25 µM and greater than 25 µM.
In the case of `COc1ccc(C2=C(c3ccccc3F)C(=O)OC2)cc1`, the IC50 in experiment [1] and in experiment [2] was greater than 25 µM throughout.
In the case of `CS(=O)(=O)c1ccc(C2=C(c3ccccc3)C(=O)OC2)cc1` [ROFECOXIB], the IC50 in experiment [2] stood at 0.06 µM.
Take `O=C1OCC(c2ccc(F)cc2)=C1c1ccccc1`: the half-maximal inhibitory concentration (IC50) in experiment [1] and in experiment [2] was greater than 25 µM throughout.
Regarding `O=C1OCC(c2ccccc2F)=C1c1ccc(CO)cc1`, the IC50 in experiment [1] and in experiment [2] was greater than 25 µM in each case.
On to `Cc1ccc(C2=C(c3cccc(F)c3)C(=O)OC2)cc1`, for which the IC50 in experiment [1] and in experiment [2] was greater than 25 µM throughout.
In the case of `O=C1OCC(c2ccccc2F)=C1c1ccc(Br)cc1`, the IC50 in experiment [1] and in experiment [2] was greater than 25 µM throughout.
In the case of `N#Cc1ccc(C2=C(c3ccnc(F)c3)C(=O)OC2)cc1`, the IC50 in experiment [1] was 4.4 µM; in experiment [2], greater than 25 µM.
For the compound `O=C1OCC(c2ccccc2)=C1c1ccccc1`, the results for the IC50 in experiment [1] and in experiment [2] were 5.9 µM and greater than 25 µM, respectively.
For `O=C1OCC(c2ccc(O)cc2)=C1c1cccc(F)c1` the same measures were 1.75 µM and greater than 25 µM.
Consider `O=C1OCC(c2ccccc2)=C1c1ccc(Oc2ccc(F)cc2)cc1`, for which the IC50 in experiment [1] and in experiment [2] was greater than 25 µM each time.
Turning to `Cc1ccc(C2=C(c3ccc(F)cc3)COC2=O)cc1`, the IC50 in experiment [1] and in experiment [2] was greater than 25 µM in each case.
As for `O=C1OCC(c2ccc(F)cc2)=C1c1ccc(Br)cc1`, the half-inhibitory concentration (IC50) in experiment [1] and in experiment [2] was greater than 25 µM in each case.
For `N#Cc1ccc(C2=C(c3ccnc(Cl)c3)C(=O)OC2)cc1`, the values for the concentration for half-maximal inhibition (IC50) in experiment [1] and in experiment [2] were 3 µM and greater than 25 µM, respectively.
For `COc1ccc(C2=C(c3ccnc(Cl)c3)C(=O)OC2)cc1` the same measures were 4.4 µM and greater than 25 µM.
For `COc1ccc(C2=C(c3ccnc(F)c3)C(=O)OC2)cc1`, in that order: 4.6 µM and greater than 25 µM.
For `O=C1OCC(c2ccc(OC(F)(F)F)cc2)=C1c1cccc(F)c1` the same measures were greater than 25 µM and greater than 25 µM.
As to `CN(C)c1ccc(C2=C(c3ccccc3F)COC2=O)cc1`, the IC50 in experiment [1] and in experiment [2] was greater than 25 µM each time.
Turning to `O=C1OCC(c2ccc(F)cc2)=C1c1ccc(O)cc1`, the IC50 in experiment [1] and in experiment [2] was greater than 25 µM each time.
Turning to `O=C1OCC(c2ccc(Cl)cc2)=C1c1ccnc(F)c1`, the half-inhibitory concentration (IC50) in experiment [1] is 15.7 µM; in experiment [2] it was greater than 25 µM.
Take `O=C1OCC(c2ccc(Cl)cc2)=C1c1ccnc(Cl)c1`: the IC50 in experiment [1] and in experiment [2] was greater than 25 µM in each case.
With `COc1ccc(C2=C(c3cccc(F)c3)C(=O)OC2)cc1`, the IC50 in experiment [1] is 0.36 µM; in experiment [2] it was greater than 25 µM. Moreover, in experiment [5], the Activity was greater than 50%.
With `CCc1ccc(C2=C(c3cccc(F)c3)C(=O)OC2)cc1`, the IC50 in experiment [1] is 9.75 µM; in experiment [2], greater than 25 µM.
Consider `Cc1ccc(C2=C(c3ccccc3F)C(=O)OC2)cc1`, for which the 50% inhibitory concentration (IC50) in experiment [1] is 1 µM; in experiment [2], greater than 25 µM.
For the compound `CN(C)c1ccc(C2=C(c3ccc(F)cc3)COC2=O)cc1`, the half-inhibitory concentration (IC50) in experiment [1] and in experiment [2] was greater than 25 µM throughout.
For the compound `Cc1ccc(C2=C(c3cccc(F)c3)COC2=O)cc1`, the IC50 in experiment [1] and in experiment [2] was greater than 25 µM each time.
`N#Cc1ccc(C2=C(c3cccc(F)c3)C(=O)OC2)cc1`: the figures for the concentration for half-maximal inhibition (IC50) in experiment [1] and in experiment [2] were 0.47 µM and greater than 25 µM, respectively.
Consider `COc1ccc(C2=C(c3cccc(Cl)c3F)C(=O)OC2)cc1`, for which the IC50 in experiment [1] is 0.3 µM; in experiment [2] it was greater than 25 µM. Further, the Activity in experiment [5] was greater than 50%.

The values are drawn from ChEMBL document CHEMBL3351312, “Design of Fluorine-Containing 3,4-Diarylfuran-2(5H)-ones as Selective COX-1 Inhibitors” (ACS Med Chem Lett, 2014).
